# Results reported in the supplement of paper PMC11208160.
# Experiment: recombinant UMI read abundance after kanamycin selection (control-corrected) (log10(CPM+1)); higher = more efficient recombination; extreme values may be limits of the assay; sequences stand for … in AGTGCAGAGAAAATCGGCCAGTTTTCTCTGCCTGCAGTCCGCATGCCGTGGGACCCCTTGGGTTCTAACCTGTTGCCTAGATTTATGCAGCGGACTGCCTTTCTCCCAAAGTGATAAACCGG…AGGTTGGTTTCACT; site = the 11-nt donor
# Outline: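 Reported values are log10(CPM+1) from a pooled Escherichia coli screen of donor and donor-binding-loop pairs for the IS621 bridge recombinase. Selection used IPTG (0.07 mM) plus kanamycin, against unselected plating, each in two replicates. Recombinant UMIs were amplified across the donor–target junction, sequenced, converted to CPM, averaged over replicates and scaled by control-derived factors.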
# 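Note: IS621 bridge recombinase in Escherichia coli cells against a fixed T5 target plasmid.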
row,Sequence,recombinant UMI read abundance (log10)
1,TATCGAACATGGACCGGTTTTCCCGGTAATCCGTATTTGTT (site TATCGAACTAA),0.00888
2,TATCTCACATGGACCGGTTTTCCCGGTAATCCGTATTTGAC (site TATCTCACTGT),2.11
3,TATCTTTCATGGACCGGTTTTCCCGGTAATCCGTATTTGAT (site TATCTTTCTAT),0
4,TATGCCACATGGACCGGTTTTCCCGGTAATCCGTATTTGTA (site TATGCCACTTA),0.598
5,TATGGCCCATGGACCGGTTTTCCCGGTAATCCGTATTTGAT (site TATGGCCCTAT),0.0149
6,TATGTAGCATGGACCGGTTTTCCCGGTAATCCGTATTTGTT (site TATGTAGCTAA),1.23
7,TATTCAACATGGACCGGTTTTCCCGGTAATCCGTATTTGCA (site GGGAACGCTAA),0.00333
8,TATTCAACATGGACCGGTTTTCCCGGTAATCCGTATTTGTG (site TATTCAACTCA),0.011
9,TATTGAGCATGGACCGGTTTTCCCGGTAATCCGTATTTGGG (site TAATGAGCTCC),0.0665
10,TATTGAGCATGGACCGGTTTTCCCGGTAATCCGTATTTGGG (site TACTGAGCTCC),0.0155
11,TATTGAGCATGGACCGGTTTTCCCGGTAATCCGTATTTGGG (site TAGTGAGCTCC),0.0187
12,TATTGAGCATGGACCGGTTTTCCCGGTAATCCGTATTTGGG (site TATTGAGCTCC),0
13,TATTGATCATGGACCGGTTTTCCCGGTAATCCGTATTTGTG (site TATTGATCTCA),0.805
14,TATTGTTCATGGACCGGTTTTCCCGGTAATCCGTATTTGTG (site TATTGTTCTCA),0.00773
15,TATTTGACATGGACCGGTTTTCCCGGTAATCCGTATTTGCT (site TAATTGACTAG),1.9
16,TATTTGACATGGACCGGTTTTCCCGGTAATCCGTATTTGCT (site TACTTGACTAG),0.882
17,TATTTGACATGGACCGGTTTTCCCGGTAATCCGTATTTGCT (site TAGTTGACTAG),0.852
18,TATTTGACATGGACCGGTTTTCCCGGTAATCCGTATTTGCT (site TATTTGACTAG),2.54
19,TATTTGACATGGACCGGTTTTCCCGGTAATCCGTATTTGTG (site TATTTGACTCA),0.0179
20,TATTTGACATGGACCGGTTTTCCCGGTAATCCGTATTTGTG (site TATTTGCCTCA),0.00551
21,TATTTGACATGGACCGGTTTTCCCGGTAATCCGTATTTGTG (site TATTTGGCTCA),0.00542
22,TATTTGACATGGACCGGTTTTCCCGGTAATCCGTATTTGTG (site TATTTGTCTCA),0.0134
23,TCAAACTCATGGACCGGTTTTCCCGGTAATCCGTATTTGCA (site TCAAACTCTTG),1.55
24,TCAAACTCATGGACCGGTTTTCCCGGTAATCCGTATTTGCA (site TCACACTCTTG),1.25
25,TCAAACTCATGGACCGGTTTTCCCGGTAATCCGTATTTGCA (site TCAGACTCTTG),0

row,Sequence,recombinant UMI read abundance (log10)
1,TCAAACTCATGGACCGGTTTTCCCGGTAATCCGTATTTGCA (site TCATACTCTTG),1.92
2,TCAAAGCCATGGACCGGTTTTCCCGGTAATCCGTATTTGAT (site TCAAAGCCTAT),0.324
3,TCAACCCCATGGACCGGTTTTCCCGGTAATCCGTATTTGTG (site TCAACCCCTCA),0.00442
4,TCAAGTTCATGGACCGGTTTTCCCGGTAATCCGTATTTGTC (site TCAAGTTCTGA),2
5,TCAATCTCATGGACCGGTTTTCCCGGTAATCCGTATTTGGT (site TCAATCTCTAC),1.11
6,TCAATTGCATGGACCGGTTTTCCCGGTAATCCGTATTTGCG (site TCAATTGCTCG),1.52
7,TCACCGCCATGGACCGGTTTTCCCGGTAATCCGTATTTGGG (site TCACCGCCTCC),0.0301
8,TCACCTTCATGGACCGGTTTTCCCGGTAATCCGTATTTGTT (site TCACCTTCTAA),0.00377
9,TCACGACCATGGACCGGTTTTCCCGGTAATCCGTATTTGCT (site TCACGACCTAG),0
10,TCACGAGCATGGACCGGTTTTCCCGGTAATCCGTATTTGCC (site TCACGAGCTGG),0.952
11,TCACGCGCATGGACCGGTTTTCCCGGTAATCCGTATTTGAA (site TCACGCGCTTT),1.05
12,TCAGAATCATGGACCGGTTTTCCCGGTAATCCGTATTTGCG (site TCAGAATCTCG),2.57
13,TCAGATACATGGACCGGTTTTCCCGGTAATCCGTATTTGCG (site TCAGAAACTCG),0
14,TCAGATACATGGACCGGTTTTCCCGGTAATCCGTATTTGCG (site TCAGACACTCG),0.812
15,TCAGATACATGGACCGGTTTTCCCGGTAATCCGTATTTGCG (site TCAGAGACTCG),0.00723
16,TCAGATACATGGACCGGTTTTCCCGGTAATCCGTATTTGCG (site TCAGATACTCG),1.33
17,TCAGCTACATGGACCGGTTTTCCCGGTAATCCGTATTTGAG (site TCAGCTACTCT),0.878
18,TCAGCTCCATGGACCGGTTTTCCCGGTAATCCGTATTTGGC (site TCAGCTCCTGC),0.823
19,TCAGGCGCATGGACCGGTTTTCCCGGTAATCCGTATTTGGT (site TCAGGCGCTAC),0.385
20,TCAGGTCCATGGACCGGTTTTCCCGGTAATCCGTATTTGAT (site TCAGGTCCTAT),1.68
21,TCAGTGTCATGGACCGGTTTTCCCGGTAATCCGTATTTGCT (site TCAGTGTCTAG),2.58
22,TCATAATCATGGACCGGTTTTCCCGGTAATCCGTATTTGCA (site TCATAATCTTG),2.3
23,TCATAATCATGGACCGGTTTTCCCGGTAATCCGTATTTGCA (site TCATACTCTTG),0.606
24,TCATAATCATGGACCGGTTTTCCCGGTAATCCGTATTTGCA (site TCATAGTCTTG),1.06
25,TCATAATCATGGACCGGTTTTCCCGGTAATCCGTATTTGCA (site TCATATTCTTG),0.925

row,Sequence,recombinant UMI read abundance (log10)
1,TCATACTCATGGACCGGTTTTCCCGGTAATCCGTATTTGAA (site TCATACTCTTA),0
2,TCATACTCATGGACCGGTTTTCCCGGTAATCCGTATTTGAA (site TCATACTCTTC),0.0134
3,TCATACTCATGGACCGGTTTTCCCGGTAATCCGTATTTGAA (site TCATACTCTTG),0
4,TCATACTCATGGACCGGTTTTCCCGGTAATCCGTATTTGAA (site TCATACTCTTT),1.72
5,TCATATTCATGGACCGGTTTTCCCGGTAATCCGTATTTGCA (site TCATAATCTTG),1.5
6,TCATATTCATGGACCGGTTTTCCCGGTAATCCGTATTTGCA (site TCATACTCTTG),1.3
7,TCATATTCATGGACCGGTTTTCCCGGTAATCCGTATTTGCA (site TCATAGTCTTG),0.00995
8,TCATATTCATGGACCGGTTTTCCCGGTAATCCGTATTTGCA (site TCATATTCTTG),0.476
9,TCATCAACATGGACCGGTTTTCCCGGTAATCCGTATTTGGT (site TCATCAACTAC),0.0136
10,TCATCCTCATGGACCGGTTTTCCCGGTAATCCGTATTTGCA (site TCATACTCTTG),0.933
11,TCATCCTCATGGACCGGTTTTCCCGGTAATCCGTATTTGCA (site TCATCCTCTTG),0.741
12,TCATCCTCATGGACCGGTTTTCCCGGTAATCCGTATTTGCA (site TCATGCTCTTG),0.00381
13,TCATCCTCATGGACCGGTTTTCCCGGTAATCCGTATTTGCA (site TCATTCTCTTG),0
14,TCATCCTCATGGACCGGTTTTCCCGGTAATCCGTATTTGGC (site TCATCCTCTGC),0
15,TCATGCTCATGGACCGGTTTTCCCGGTAATCCGTATTTGCA (site TCATACTCTTG),0.466
16,TCATGCTCATGGACCGGTTTTCCCGGTAATCCGTATTTGCA (site TCATCCTCTTG),0
17,TCATGCTCATGGACCGGTTTTCCCGGTAATCCGTATTTGCA (site TCATGCTCTTG),0.764
18,TCATGCTCATGGACCGGTTTTCCCGGTAATCCGTATTTGCA (site TCATTCTCTTG),0
19,TCCAAATCATGGACCGGTTTTCCCGGTAATCCGTATTTGCC (site TCCAAATCTGG),0
20,TCCAAATCATGGACCGGTTTTCCCGGTAATCCGTATTTGCC (site TCCAACTCTGG),0
21,TCCAAATCATGGACCGGTTTTCCCGGTAATCCGTATTTGCC (site TCCAAGTCTGG),0
22,TCCAAATCATGGACCGGTTTTCCCGGTAATCCGTATTTGCC (site TCCAATTCTGG),0
23,TCCAACGCATGGACCGGTTTTCCCGGTAATCCGTATTTGCG (site TCCAACGCTCG),0.0127
24,TCCAACGCATGGACCGGTTTTCCCGGTAATCCGTATTTGCG (site TCCACCGCTCG),0
25,TCCAACGCATGGACCGGTTTTCCCGGTAATCCGTATTTGCG (site TCCAGCGCTCG),0
